Consider one molecule from patent publication US11884747B2, “Compstatin analogs with increased solubility and improved pharmacokinetic properties” (The Trustees of the University of Pennsylvania, priority 2018, dated 2024).

Where “and” joins values, the source holds several entries; their conditions need not be identical. Equal values may be shown once. Entries after “also recorded” stand apart in the source; their conditions may differ. Read-outs that look alike come from different tables or passages of the source. Marks after values point to notes of the source that are not given here. A value given as a limit tells only on which side of the number the result lay.

One data set deals with T1, human C3b (Homo sapiens, UniProt P01024).
T1 construct: purchased Complement Technology, Inc., Tyler, TX
Description: SPR binding affinity and kinetic profile with immobilized C3b. Particulars: 25 °C.

A short description of data set [1]: Pharmacokinetics after single i.v. injection. It is filed as in vivo, cynomolgus monkeys. The procedure:
FIG. 11 show graphs of peptide concentration over time in cynomolgus monkeys to which was administered a single 2 mg/kg intravenous injection of Cp40-KK (panel a), Cp40-KKK (panel b), mPEG(1 k)-Cp40 (panel c), and mPEG(3 k)-Cp40 (panel d). […]
In vivo pharmacokinetic studies were conducted, in which cynomolgus monkeys were administered single i.v. injections of mPEG(1 k)-Cp40, mPEG(3 k)-Cp40, Cp40-KK, or Cp40-KKK.

The nature of data set [2]: Residence time in the vitreous after single intravitreal injection (WES and SPR competition assay). It is filed as in vivo, cynomolgus monkeys. The procedure: To determine the residence time of mPEG(3 k)-Cp40, mPEG(1 k)-Cp40, Cp40-KK, and Cp40-KKK in the vitreous of cynomolgus macaques, these Cp40-based analogs were administered intravitreally (i.v.t.) to the animals after induction of light ketamine anesthesia (10-15 mg/kg, by intramuscular injection (i.m.)) and dilation of the pupils with tropicamide/phenylephrine ophthalmic solution (see Table 6 for study design).
For i.v.t. injection, the cynomolgus monkeys were anesthetized with a combination of ketamine (15-25 mg/kg, i.m.) and xylazine (2 mg/kg, i.m.) and the eye was cleaned with povidone-iodine solution. After application of oxybuprocaine hydrochloride solution (Benoxil® ophthalmic solution 0.4%) to the cornea as a local anesthetic, the Cp40-based analogs were administered to the animals by i.v.t. injection into either the right (G1, G3) or left (G2, G4) eye of each animal. Immediately following each injection, a single topical dose of 0.5% levofloxacin was administered. After i.v.t. injection of mPEG(3 k)-Cp40, mPEG(1 k)-Cp40, Cp40-KK, and Cp40-KKK, vitreous fluid samples (about 50 μL each) were withdrawn from Cp40-based analog-treated eyes on days 14, 28, 42, (G1, G2, G3, G4), 56, 73, 90 (G1, G2) (this was done either three times or six times). Samples were collected on ice and stored in a deep freezer (˜79.3 to −68.5° C.) until further analysis. […] Presence and concentration of the Cp40-based analogs was determined using either the simple western technology (WES, ProteinSimple, San Jose, CA), or surface plasmon resonance (SPR)-based real-time measurement of binding kinetics on a Cp40-KKK immobilized chip (see detailed methods below). Similar results with regard to the intravitreal residence time and concentration levels of the test compounds were obtained regardless of the quantification method selected.
To quantify the levels of all test compounds in vitreous samples collected at different time points following i.v.t. injection (see FIG. 15), WES analysis was performed on a WES instrument (ProteinSimple, San Jose, CA) using a 2 to 40 kDa Separation Module and Anti-Rabbit Detection Module according to the manufacturers' instructions. […] The resulting electropherograms were evaluated using the Compass software (ProteinSimple, San Jose, CA). The following criteria were used to discriminate low peptide signals from background: The peak signal-to-noise (S/N) ratio given by the software must be ≥10, and the peak height/baseline ratio (calculated manually from the peak height and baseline values given by the software) must be equal to or greater than 3. […] Shown in FIG. 15 is a representative standard curve generated using the WES system and bands obtained upon running pre-determined amounts of purified peptide spiked into rabbit vitreous samples. […]

The target in a further data set is T2, purified human C3b (Homo sapiens, UniProt P01024).
T2 construct: purchased Complement Technology, Inc., Tyler, TX
Description: SPR C3b-binding activity of compound present in vitreous samples. How it is done: To confirm that the compound present in the NHP vitreous maintains C3b-binding activity, which is a prerequisite for eliciting its inhibitory action across all complement pathways, surface plasmon resonance (SPR) binding experiments were conducted. Briefly, for a positive binding control, serial dilutions of Cp40-KKK (16, 8, 4, and 2 nM) were added to rabbit vitreous samples and flowed onto a Biacore CM5 chip immobilized with purified human C3b (Complement Technology Inc, Tyler, TX) (see FIG. 19A). Next, vitreous samples were collected from a Cp40-KKK injected eye at day 14 post-injection and subjected to heat-inactivation at 95° C. for 5 min. Both heat-inactivated and non-heat-inactivated samples were flowed onto a CM5 chip immobilized with purified human C3b as indicated above (FIG. 19B).

Another data set can be described thus: physchem. Particulars: pH 7.4, Conc. (mg/ml), solubility in PBS.
Data set [3] is described as follows: Pharmacokinetics in NHP plasma after single s.c. injection, with plasma C3 levels.
Where [4] appears, read: NHP vitreous, day 14 post-injection.
Setting [5] is: pH adjusted upon addition of PBS.

T2 sequence (P01024 23-667 limits assumed): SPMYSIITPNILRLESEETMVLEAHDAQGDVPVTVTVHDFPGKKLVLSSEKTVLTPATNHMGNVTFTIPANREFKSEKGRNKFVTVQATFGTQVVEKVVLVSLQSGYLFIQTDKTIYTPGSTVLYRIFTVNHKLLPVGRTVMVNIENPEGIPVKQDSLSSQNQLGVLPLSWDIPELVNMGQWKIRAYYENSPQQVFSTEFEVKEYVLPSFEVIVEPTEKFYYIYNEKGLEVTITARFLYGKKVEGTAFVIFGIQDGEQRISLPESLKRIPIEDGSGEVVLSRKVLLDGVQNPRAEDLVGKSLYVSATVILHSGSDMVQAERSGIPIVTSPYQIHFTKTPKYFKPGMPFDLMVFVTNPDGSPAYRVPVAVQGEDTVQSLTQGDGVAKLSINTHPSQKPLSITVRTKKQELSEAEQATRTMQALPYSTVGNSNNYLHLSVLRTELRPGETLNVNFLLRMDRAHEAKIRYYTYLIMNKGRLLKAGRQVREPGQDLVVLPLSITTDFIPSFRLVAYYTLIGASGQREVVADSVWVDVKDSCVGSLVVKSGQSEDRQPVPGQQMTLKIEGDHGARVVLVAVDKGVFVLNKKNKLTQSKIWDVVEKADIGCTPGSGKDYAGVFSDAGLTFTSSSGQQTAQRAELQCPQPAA
T2 sequence (P01024 749-1663 partner limits assumed): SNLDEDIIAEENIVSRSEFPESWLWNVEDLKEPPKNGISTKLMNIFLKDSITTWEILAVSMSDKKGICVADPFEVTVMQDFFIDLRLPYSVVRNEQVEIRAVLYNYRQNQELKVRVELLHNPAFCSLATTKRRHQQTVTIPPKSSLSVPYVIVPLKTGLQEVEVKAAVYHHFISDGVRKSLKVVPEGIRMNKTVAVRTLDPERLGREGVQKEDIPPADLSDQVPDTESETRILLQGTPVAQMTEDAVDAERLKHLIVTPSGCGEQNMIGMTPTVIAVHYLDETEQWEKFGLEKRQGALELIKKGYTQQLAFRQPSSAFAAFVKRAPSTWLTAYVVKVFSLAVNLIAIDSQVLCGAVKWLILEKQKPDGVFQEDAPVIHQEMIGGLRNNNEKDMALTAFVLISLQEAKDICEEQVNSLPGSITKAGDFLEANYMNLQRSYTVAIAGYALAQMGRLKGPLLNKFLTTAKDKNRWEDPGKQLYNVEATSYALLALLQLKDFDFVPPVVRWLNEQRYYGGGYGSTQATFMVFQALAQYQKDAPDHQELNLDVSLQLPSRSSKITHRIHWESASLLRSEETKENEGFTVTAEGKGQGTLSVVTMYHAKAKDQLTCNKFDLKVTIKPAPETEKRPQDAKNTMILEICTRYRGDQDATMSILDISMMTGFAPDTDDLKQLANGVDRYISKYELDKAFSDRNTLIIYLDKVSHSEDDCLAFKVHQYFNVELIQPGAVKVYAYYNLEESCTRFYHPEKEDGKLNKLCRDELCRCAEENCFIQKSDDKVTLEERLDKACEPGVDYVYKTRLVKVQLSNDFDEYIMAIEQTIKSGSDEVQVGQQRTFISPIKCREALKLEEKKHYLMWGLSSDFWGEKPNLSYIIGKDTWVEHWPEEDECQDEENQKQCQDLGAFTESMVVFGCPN
T1 sequence (P01024 23-667 limits assumed): as the sequence (P01024 23-667 limits assumed) above
T1 sequence (P01024 749-1663 partner limits assumed): as the sequence (P01024 749-1663 partner limits assumed) above

For `CC[C@H](C)[C@H](NC(=O)[C@H](N)Cc1ccc(O)cc1)C(=O)N[C@H]1CSSC[C@@H](C(=O)N(C)[C@H](C(=O)N[C@@H](CCCCN)C(=O)N[C@@H](CCCCN)C(=O)N[C@@H](CCCCN)C(N)=O)[C@@H](C)CC)NC(=O)[C@H](CCCNC(=N)N)NC(=O)[C@H](Cc2c[nH]cn2)NC(=O)[C@H](C)NC(=O)CN(C)C(=O)[C@H](Cc2c[nH]c3ccccc23)NC(=O)[C@H](CC(=O)O)NC(=O)[C@H](CCC(N)=O)NC(=O)[C@H](Cc2cn(C)c3ccccc23)NC(=O)[C@H](C(C)C)NC1=O` [Cp40-KKK, DTyr-Ile-[Cys-Val-Trp(Me)-Gln-Asp-Trp-Sar-Ala-His-Arg-Cys]-mlle-Lys-Lys-Lys—NH2], the “kd, dissociation constant” value on human C3b (1:1 Langmuir model) is on record as 1.24 ± 0.42 10^−3s^−1. Besides, the Kd on human C3b (KD=kd/ka, read-out: KD, equilibrium dissociation constant) stood at 0.21 ± 0.09 nM. Moreover, the “in vivo Lys cleavage in plasma” value in data set [1] (after i.v. injection) is “metabolized into Cp40-KK and small amounts of Cp40-K”. Besides, the AUC(0-t) in data set [1] (cynomolgus monkey, plasma, iv, 2 mg/kg, single i.v. injection, read-out: AUC0-120h) is 304 to 312 µM·h. Further, the “AUC0-120 h greater than Cp40-KK” value in data set [1] (single i.v. injection) is given as “over 3.5 fold”. The “vitreous residence at C3 saturating levels” value in data set [2] (single i.v.t. 0.5 mg) is listed as at least 90 days. In data set [2] (single i.v.t. 500 μg, days 14-90), the “detection in vitreous over time” value was “detected even at day 90 post-treatment; also recorded: remained stable during the 73-day observation period”. Besides, at purified human C3b (setting [4]), the “C3b-binding signal, heat-inactivated vitreous sample” value came out at 10 relative units and the “C3b-binding signal, non-heat inactivated vitreous sample” value was found to be 2 relative units. Besides, at purified human C3b (spiked rabbit vitreous or injected NHP eye), the “C3b binding in vitreous” value is “binds to C3b in a dose-dependent manner; also recorded: maintains its C3b-binding activity”. This molecule also showed a pH (after additional lyophilization from H2O) of 9.5. The “pH of the peptide solution in PBS” value (at the stated concentration, indicator paper) was determined as 8.5. In addition, under setting [5], the “Conc. (mg/ml) at which pH in the 7 range was observed” value is 7 mg/ml and 7.0 mg/ml; the pH is reported as 7.5*. The solubility in the data set “physchem” is over 100 mg/mL. The “Cp40-K fragment detectable in plasma” value in data set [3] (4 h after s.c. injection, one monkey) was at most 5 µM. In data set [3] (after s.c. injection, UPLC-ESI-MS), the “in vivo Lys cleavage in plasma” value was “one or two Lys residues are cleaved from Cp40-KKK in NHP plasma, but not the third; also recorded: no Cp40 was detected in any of the plasma samples; also recorded: almost completely metabolized into Cp40-KK and small amounts of Cp40-K”. Besides, in data set [3] (single s.c. 2 mg/kg), the “decreased CL/F compared to Cp40” value was about 3 fold, the “higher cmax than Cp40” value is recorded as about 2 fold and the “increased AUC0-t compared to Cp40” value was about 2.6 fold. In addition, the “plasma concentration of uncleaved Cp40-KKK at any time point” value in data set [3] (single s.c. 2 mg/kg, UPLC-ESI-MS, both animals) is at most 2000 nM. For the same molecule, the “CL/F, apparent clearance” value in data set [3] (single s.c. 2 mg/kg, SUM for Lys analogs, 2 mg/kg) was 2483 ((mg/kg)/(μM · h) and 2921 ((mg/kg)/(μM · h).

As usually defined, the Kd is the equilibrium constant for the complex coming apart. In general, solubility refers to the concentration that dissolves in the medium under given conditions.
